# Source: ChEMBL document CHEMBL3739313, “4-Methylcoumarins with cytotoxic activity against T24 and RT4 human bladder cancer cell lines” (2015)
# Active and inactive are the calls of the source. The calls are words filed in the database; no cut-off is given here.
# Columns and labels:
# [1] = Cytotoxicity against human T24 cells assessed as reduction of cell viability at 10 uM after 48 hrs by MTT assay; format: functional, T-24
# [2] = Cytotoxicity against human T24 cells assessed as reduction of cell viability at 25 uM after 48 hrs by MTT assay; format: functional, T-24
# [3] = Cytotoxicity against human T24 cells assessed as reduction of cell viability at 50 uM after 48 hrs by MTT assay; format: functional, T-24
# [4] = Cytotoxicity against human T24 cells assessed as reduction of cell viability at 100 uM after 48 hrs by MTT assay; format: functional, T-24
# [5] = Cytotoxicity against human T24 cells assessed as reduction of cell viability at 50 uM after 24 hrs by MTT assay; format: functional, T-24
# [6] = Cytotoxicity against human T24 cells assessed as reduction of cell count at 50 uM after 24 hrs; format: functional, T-24; parameters: scale not given: the % may be the effect or the level left
# RT-4 = assay: Cytotoxicity against human RT4 cells assessed as reduction of cell viability at 5 to 100 uM after 24 hrs by MTT assay; format: functional, cell-based
# [7] = Cell cycle arrest in human T24 cells assessed as accumulation at sub-G1 phase at 50 to 100 uM after 24 hrs by flow cytometry assay; format: functional, cell-based; conditions: T-24
# T-24 = assay: Induction of apoptosis in human T24 cells at 50 uM after 24 hrs using annexin V/propidium iodide staining by flow cytometry assay; format: functional
smiles,measurement,setting,value
Cc1cc(=O)oc2c(O)c(O)cc(C(=O)O)c12,Activity,[1],21.37%
same,Activity,[2],62.26%
same,Activity,[3],63.95%
same,Activity,[4],65.64%
same,Activity,[5],24.14%
same,Activity,[6],44.52%
same,Activity,RT-4,inactive
same,Activity,[7],Active
same,Activity,T-24,22.57%
